Test results from patent publication US20260327628A1, “AN RNA APTAMER THAT BINDS TO ASP7967 OR AN ANALOGUE THEREOF” (priority 2022, published 2026).

Test system: aptazyme-based riboswitches (AC17-4)
Experiment: cells
Type: cell-based
Settings: Homo sapiens, 48 h; ligand as low as 5 μM in culture medium, HEK293 cells; read-out: activation of gene expression
Procedure: HEK293 cells were cultured in Dulbecco's modified Eagle's medium (DMEM) supplemented with 10% heat-inactivated FBS (Gibco) containing 2 mM L-glutamine and 100 units ml^−1 of penicillin-streptomycin (DMEM-FBS). Cells were kept in a 37° C. incubator with 5% CO2 and passaged regularly upon reaching 90% confluency. Approximately 20 h prior to transfection, the cells were trypsinized, diluted to ~2.7×10^5 cells ml^−1 and 100 μl per well were seeded onto a 96-well plate. Cells in each well were cotransfected with 100 ng of the EGFP-aptazyme plasmid and 20 ng of pCMV-mCherry^27 (transfection control) using 0.3 μl of TransIT-293 Transfection Reagent (Mirus) according to the manufacturer's instructions. […] Forty-eight hours after transfection, the medium in each well was replaced with 100 μl of phosphate buffered saline (PBS), and fluorescence intensity was measured by Infinite M1000 PRO microplate reader (Tecan). Fluorescence intensity was measured at 484 nm excitation/510 nm emission/5 nm bandwidth for EGFP, and at 587 nm excitation/610 nm emission/10 nm bandwidth for mCherry. Background fluorescence measured using untransfected cells was subtracted from the EGFP and mCherry fluorescence values. Then, EGFP fluorescence was normalized by mCherry fluorescence to account for variations in transfection efficiency and cell counts. […]

Compound | fold induction at 5 µM
Fc1ccc(Nc2nc(NCc3ncccn3)nc(Nc3ccc(F)cc3)n2)cc1 [ASP7967] | > 10
Fc1ccc(Nc2nc(NCc3ncccn3)nc(Nc3ccccc3)n2)cc1 [ASP2905, reference compound] | > 10
